Consider `CC1(C)CCc2c(ccc3[nH]c4c(c23)CCNCC4)O1.Cl`, for which the melting point was > 258 °C (dec.).

As to `Cl.Cn1c2c(c3c4c(ccc31)OCCC4)CCNCC2`, the melting point was > 217 °C (dec.).

Values taken from patent US6503899B2, “Azepino[4,5-b]pyrano[3,2-e]indoles” (Pharmacia & Upjohn Company, priority 2000, dated 2003).
